How the values were obtained:
[1] = molecular target: T1, L-iLDH (NAD-independent L-lactate dehydrogenase) from P. stutzeri SDM (Stutzerimonas stutzeri, UniProt I1SLB1); test: HPLC of flavin released by boiling; UV-visible spectrum; assay type: binding; conditions: native enzyme purified from membrane; recombinant enzyme similar; one FMN per subunit
T1 construct: gene lldD; full-length lldD in pETDuet-1 (HindIII/XhoI), expressed in E. coli C43(DE3), HisTrap purified (tag not described); also purified natively from membrane with Triton X-100; one FMN per subunit
T1 sequence (I1SLB1 1-391): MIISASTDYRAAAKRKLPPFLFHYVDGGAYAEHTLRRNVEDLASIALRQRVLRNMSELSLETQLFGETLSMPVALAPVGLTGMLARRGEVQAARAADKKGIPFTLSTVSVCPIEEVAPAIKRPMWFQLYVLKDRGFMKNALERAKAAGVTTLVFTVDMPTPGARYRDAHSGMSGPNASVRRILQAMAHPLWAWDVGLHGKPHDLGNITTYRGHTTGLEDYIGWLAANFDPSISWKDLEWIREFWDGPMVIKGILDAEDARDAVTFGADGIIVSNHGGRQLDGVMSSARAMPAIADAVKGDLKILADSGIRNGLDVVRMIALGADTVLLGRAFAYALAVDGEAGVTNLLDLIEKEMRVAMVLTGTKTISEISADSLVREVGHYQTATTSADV

[2] = molecular target: T1, L-iLDH (NAD-independent L-lactate dehydrogenase) from P. stutzeri SDM; test: MTT reduction at […] nm, double-reciprocal plots; assay type: biochemical
purified protein [3] = substrate: CC[C@H](O)C(=O)O; test: purified protein; assay type: biochemical, Stutzerimonas stutzeri; conditions: apparent, fixed 0.2 mM MTT as electron acceptor, 50 mM Tris-HCl pH 7.5, 30°C
purified protein [4] = substrate: C[C@H](O)C(=O)O; test: purified protein; assay type: biochemical, Stutzerimonas stutzeri; conditions: apparent, fixed 0.2 mM MTT as electron acceptor, 50 mM Tris-HCl pH 7.5, 30°C

## Cc1cc2nc3c(=O)[nH]c(=O)nc-3n(C[C@H](O)[C@H](O)[C@H](O)COP(=O)(O)O)c2cc1C [FMN]
[1]
  HPLC of flavin released by boiling; UV-visible spectrum: the native enzyme contains one FMN per subunit

## O=C(O)C(=O)O [oxalate]
[2]
  Ki: 1.9 ± 0.1 mM

## NC(=O)C(=O)O [oxamate]
[2]
  Ki: 29 ± 1.7 mM

B1: L-iLDH (NAD-independent L-lactate dehydrogenase) from P. stutzeri SDM (Stutzerimonas stutzeri) (protein)
chain: T1 sequence (I1SLB1 1-391)
notes: full-length lldD in pETDuet-1 (HindIII/XhoI), expressed in E. coli C43(DE3), HisTrap purified (tag not described); also purified natively from membrane with Triton X-100; one FMN per subunit
Purified protein [3]
  Km: 99 ± 3.9 µM
Purified protein [4]
  Km: 29 ± 0.65 µM

Reference: article PMC3344892, “NAD-Independent L-Lactate Dehydrogenase Is Required for L-Lactate Utilization in Pseudomonas stutzeri SDM” (PLoS ONE, 2012)
